Test results as given in article PMC6593178 (Bioorganic & Medicinal Chemistry Letters, 2019).
“Also recorded” adds a separate entry of the source. Like-named read-outs stand apart in the source and are kept apart here.

Experiments:
[1] = test system: CTX-M15; parameters: method as in PMID 28115348; details: read-out: Cyclic Boronate (CB2) IC50; cited from earlier work
[2] = molecular target: T1, CphA (Aeromonas hydrophila, UniProt P26918); details: cited from earlier work
T1 construct: made in house; host or cells: E. coli
T1 sequence (P26918 28-254): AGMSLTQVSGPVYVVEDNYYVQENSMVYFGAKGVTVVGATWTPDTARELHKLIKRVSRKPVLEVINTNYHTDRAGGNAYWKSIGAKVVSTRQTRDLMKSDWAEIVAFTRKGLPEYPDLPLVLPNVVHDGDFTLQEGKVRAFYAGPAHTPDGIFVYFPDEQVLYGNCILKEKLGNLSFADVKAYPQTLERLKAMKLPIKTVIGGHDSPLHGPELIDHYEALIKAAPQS

[3] = molecular target: T2, L1 (Stenotrophomonas maltophilia, UniProt P52700); details: cited from earlier work
T2 construct: made in house; host or cells: E. coli
T2 sequence (P52700 34-290): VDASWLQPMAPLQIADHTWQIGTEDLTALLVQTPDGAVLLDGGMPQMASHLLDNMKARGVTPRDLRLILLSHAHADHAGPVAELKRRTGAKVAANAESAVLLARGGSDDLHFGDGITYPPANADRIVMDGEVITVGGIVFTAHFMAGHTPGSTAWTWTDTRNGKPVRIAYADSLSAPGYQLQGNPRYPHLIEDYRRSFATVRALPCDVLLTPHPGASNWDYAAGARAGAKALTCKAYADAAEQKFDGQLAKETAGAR

[4] = molecular target: T3, AmpC (Pseudomonas aeruginosa, UniProt P24735); details: read-out: Cyclic Boronate (CB2) IC50; cited from earlier work
T3 construct: made in house; host or cells: E. coli
T3 sequence (P24735 27-397): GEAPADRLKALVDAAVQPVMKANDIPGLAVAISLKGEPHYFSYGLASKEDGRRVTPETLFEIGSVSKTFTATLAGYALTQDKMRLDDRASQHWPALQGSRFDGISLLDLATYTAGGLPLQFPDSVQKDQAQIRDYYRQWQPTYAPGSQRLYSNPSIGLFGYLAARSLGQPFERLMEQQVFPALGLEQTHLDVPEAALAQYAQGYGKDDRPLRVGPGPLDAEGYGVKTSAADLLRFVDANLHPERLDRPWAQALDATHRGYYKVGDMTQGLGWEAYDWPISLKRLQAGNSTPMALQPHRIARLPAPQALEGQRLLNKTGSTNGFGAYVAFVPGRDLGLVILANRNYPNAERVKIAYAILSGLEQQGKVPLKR

[5] = test system: class B MBLs (IMP-1, VIM-1, VIM-2, NDM-1 and L1); parameters: method as in PMID 27401561; details: across the same range of inhibitor concentrations as vaborbactam; cited from earlier work
[6] = molecular target: T1, CphA; experiment: β-lactamase inhibition, meropenem hydrolysis UV assay; assay type: biochemical; details: subclass B2
Description: (§1) Recombinant MBLs and SBLs were produced in E. coli and purified following reported procedures^1-6 and were all >95% pure (as judged by SDS-PAGE and MS analyses). Note the TEM enzyme used in this study is named TEM-116^7, in previous studies this has been assigned incorrectly as TEM-1^3, 5, 8-14. […] Activity was assayed by monitoring the release of a fluorophore following the enzymatic breakdown of the cephalosporin FC-5^15, with the exception of the class B2 MBLs, where the hydrolysis of meropenem was used as a readout^16. FC-5 assays were conducted in clear bottomed 384 black well microplates (Greiner) and the initial rate of reaction was assessed by monitoring the fluorescence intensity (λex = 380 nm and λem = 460 nm) using a PHERAstar FS (BMG LabTech) plate reader^15. For the B2 MBLs, assays were carried out in 96 well UV star microplates (Greiner) and UV absorbance at λ = 300 nm monitored. Initial rates of reaction were determined and dose-response analyses conducted in GraphPad Prism^15.

[7] = molecular target: T3, AmpC; experiment: β-lactamase inhibition, FC-5 fluorogenic cephalosporin assay; assay type: biochemical; details: class C
Description: as §1

[8] = molecular target: T4, IMP-1 (Serratia marcescens, UniProt P52699); experiment: as above; assay type: biochemical; details: IMP-1, subclass B1
T4 construct: made in house; host or cells: E. coli
T4 sequence (P52699 19-246, looked up, species assumed): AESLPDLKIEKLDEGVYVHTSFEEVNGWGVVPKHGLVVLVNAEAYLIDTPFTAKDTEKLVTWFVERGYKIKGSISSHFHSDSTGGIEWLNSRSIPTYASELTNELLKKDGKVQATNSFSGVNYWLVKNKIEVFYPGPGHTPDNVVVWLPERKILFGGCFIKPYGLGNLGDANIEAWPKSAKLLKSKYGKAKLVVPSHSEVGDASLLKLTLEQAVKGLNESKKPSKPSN
Description: as §1

[9] = molecular target: T5, KPC-2 (Klebsiella pneumoniae, UniProt Q9F663); experiment: as above; assay type: biochemical; details: KPC-2, class A
T5 construct: made in house; host or cells: E. coli
T5 sequence (Q9F663 25-293, looked up, species assumed): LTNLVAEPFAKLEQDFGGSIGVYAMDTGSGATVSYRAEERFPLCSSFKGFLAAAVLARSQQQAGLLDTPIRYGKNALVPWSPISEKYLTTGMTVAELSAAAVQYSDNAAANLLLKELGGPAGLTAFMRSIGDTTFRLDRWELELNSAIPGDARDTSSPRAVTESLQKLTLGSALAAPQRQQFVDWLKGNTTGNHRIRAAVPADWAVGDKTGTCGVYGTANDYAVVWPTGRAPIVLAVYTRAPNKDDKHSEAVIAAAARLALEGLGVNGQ
Description: as §1

[10] = molecular target: T2, L1; experiment: as above; assay type: biochemical; details: L1, subclass B3
Description: as §1

[11] = molecular target: T6, NDM-1 (Klebsiella pneumoniae, UniProt C7C422); experiment: as above; assay type: biochemical; details: NDM-1, subclass B1
T6 construct: made in house; host or cells: E. coli
T6 sequence (C7C422 29-270, looked up, species assumed): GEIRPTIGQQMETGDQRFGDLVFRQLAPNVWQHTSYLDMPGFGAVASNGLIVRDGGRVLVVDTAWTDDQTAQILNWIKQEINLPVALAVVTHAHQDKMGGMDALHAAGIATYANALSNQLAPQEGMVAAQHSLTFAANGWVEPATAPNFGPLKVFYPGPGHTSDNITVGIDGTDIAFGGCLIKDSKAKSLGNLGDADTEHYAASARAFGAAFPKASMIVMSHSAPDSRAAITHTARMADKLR
Description: as §1

[12] = molecular target: T7, OXA-10 (Pseudomonas aeruginosa, UniProt P14489); experiment: as above; assay type: biochemical; details: for IC50: OXA-10, class D
T7 construct: made in house; host or cells: E. coli
T7 sequence (P14489 20-266, species assumed): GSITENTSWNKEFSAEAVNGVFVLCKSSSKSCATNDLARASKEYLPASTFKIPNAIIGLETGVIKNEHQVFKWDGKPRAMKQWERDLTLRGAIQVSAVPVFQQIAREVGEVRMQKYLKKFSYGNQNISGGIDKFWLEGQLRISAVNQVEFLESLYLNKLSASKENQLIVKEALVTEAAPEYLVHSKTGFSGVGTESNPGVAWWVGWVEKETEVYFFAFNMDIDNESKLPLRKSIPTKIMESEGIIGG
Description: as §1

[13] = molecular target: T8, VIM-1 (Pseudomonas aeruginosa, UniProt A0A0F7KYQ8); experiment: as above; assay type: biochemical; details: VIM-1, subclass B1
T8 construct: made in house; host or cells: E. coli
Description: as §1

[14] = molecular target: T9, VIM-2 (Escherichia coli, UniProt Q5U7L7); experiment: as above; assay type: biochemical; details: VIM-2, subclass B1
T9 construct: made in house; host or cells: E. coli
Description: as §1

[15] = molecular target: T10, OXA-48 (Klebsiella pneumoniae, UniProt Q6XEC0); experiment: as above; assay type: biochemical; details: Vaborbactam IC50, OXA-48, class D, 100 mM NaHCO3
T10 construct: made in house; host or cells: E. coli
T10 sequence (Q6XEC0 23-265, looked up, species assumed): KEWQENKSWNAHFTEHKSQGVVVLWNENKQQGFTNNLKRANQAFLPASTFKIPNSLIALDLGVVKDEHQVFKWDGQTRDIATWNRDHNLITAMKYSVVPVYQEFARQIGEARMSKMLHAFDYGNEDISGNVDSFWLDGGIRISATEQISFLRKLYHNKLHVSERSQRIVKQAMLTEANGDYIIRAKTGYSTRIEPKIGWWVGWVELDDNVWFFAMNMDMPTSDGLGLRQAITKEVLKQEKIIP

[16] = molecular target: CTX-M15; parameters: method as in PMID 25782055; details: read-out: Vaborbactam Ki; CTX-M15, nitrocefin assay; cited from earlier work
[17] = molecular target: SHV-12; details: read-out: Vaborbactam Ki; SHV-12, nitrocefin assay; cited from earlier work
[18] = molecular target: KPC-2 carbapenemase; parameters: method as in PMID 25782055; details: read-out: Vaborbactam Ki; KPC-2, nitrocefin assay; cited from earlier work
[19] = molecular target: cephalosporinase P99; parameters: method as in PMID 25782055; details: read-out: Vaborbactam Ki; P99, nitrocefin assay; cited from earlier work
[20] = molecular target: CMY-2; parameters: method as in PMID 25782055; details: read-out: Vaborbactam Ki; CMY-2, nitrocefin assay; cited from earlier work

Question: For `NCc1ccc(C(=O)N[C@H]2Cc3cccc(C(=O)O)c3OB2O)cc1` [CB2], which IC50 [1] is on record?
Answer: The IC50 was 0.013 µM.

Question: And the “inhibitory activity against B2 CphA” value ([2]; CphA (mono Zn(II)))?
Answer: Its value is “do not exhibit inhibitory activity”.

Question: And the IC50 ([2]; read-out: Cyclic Boronate (CB2) IC50, CphA)?
Answer: Its IC50 is > 100 µM.

Question: And the “Cyclic Boronate (CB2) IC50” value [3]?
Answer: Its value is “do not exhibit inhibitory activity; also recorded: Not inhibited[19]”.

Question: What about the IC50 [4] of the same compound?
Answer: Its IC50 is 0.12 µM.

Question: For `NC(=O)[C@@H]1CC[C@@H]2CN1C(=O)N2OS(=O)(=O)O` [avibactam], which “inhibition of MBLs” value [5] is on record?
Answer: The value was “does not show any inhibition”.

Question: Which IC50 [6] does the source give for `O=C(O)C[C@@H]1CC[C@H](NC(=O)Cc2cccs2)B(O)O1` [Vaborbactam, vaborbactam] here?
Answer: Its IC50 is 631 µM.

Question: What about the IC50 [7] of the same compound?
Answer: The IC50 was 5 µM.

Question: What about the IC50 [8] of the same compound?
Answer: Its IC50 is 126 µM.

Question: And the IC50 [9]?
Answer: Its IC50 is 0.09 µM.

Question: What about the IC50 [10] of the same compound?
Answer: The IC50 was 336 µM.

Question: And the IC50 [11]?
Answer: Its IC50 is 631 µM.

Question: What about the IC50 ([12]; without NaHCO3) of the same compound?
Answer: The IC50 was > 400 µM.

Question: What about the IC50 ([12]; read-out: Vaborbactam IC50, 100 mM NaHCO3) of the same compound?
Answer: Its IC50 is > 400 µM.

Question: What about the inhibition at 400 µM ([12]; read-out: inhibition of OXA-10 at the highest tested concentration) of the same compound?
Answer: The inhibition at 400 µM was < 50%.

Question: And the IC50 [13]?
Answer: Its IC50 is 398 µM.

Question: And the IC50 [14]?
Answer: The IC50 was 316 µM.

Question: What about the IC50 [15] of the same compound?
Answer: The IC50 was 32 µM.

Question: What about the Ki [16] of the same compound?
Answer: Its Ki is 0.044 µM.

Question: What about the Ki [17] of the same compound?
Answer: Its Ki is 0.029 µM.

Question: What about the Ki [18] of the same compound?
Answer: The Ki was 0.069 µM.

Question: What about the Ki [19] of the same compound?
Answer: The Ki was 0.053 µM.

Question: What about the Ki [20] of the same compound?
Answer: The Ki was 0.099 µM.
